# System: HSV-1
# Experiment: HSV-1 Antiviral Assay (Vero cells, cell viability)
# Format: cell-based
# Details: Human alphaherpesvirus 1, 96 h; Vero cells, 80 TCID50 HSV-1, 4 days, cell viability; read-out: HSV-1 EC50
# Procedure: Vero cells were cultured in Dulbecco's Modified Eagle Medium (DMVEM) supplemented with […] and 100 units/mL penicillin and streptomycin. The cells were passaged 2-3 times per week to maintain sub-confluent densities.
# Vero cells were seeded into 96-well plates at a density of 2.5×10^3 cells per well and allowed to attach overnight. Following attachment, the media was replaced with 50 μL of infection medium (DMVEM supplemented with 2% fetal bovine serum and 100 units/mL penicillin and streptomycin). A Tecan D300e digital dispenser was then used to add compounds to the culture using an 8-point 3-fold serial dilution format. The DMSO concentration was normalized to 0.5% for all treatments. Following compound addition, 50 μL of infection medium containing 80 TCID50 HSV-1 was added to the cells and incubated at 37° C. for 4 days. After the incubation, the plates were equilibrated to room temperature, the media was removed, and […] a 1:1 dilution of Cell titer glow and phosphate buffered saline was added to the cells. Following a 5-minute incubation, cell viability was quantified by measuring luminance using a Tecan Infinite M1000 Pro plate reader.
row,SMILES,EC50
1,Cc1nc(N2CCCN(c3ccc(-c4cc(F)ccc4F)cc3)C2=O)sc1S(=O)(=O)N1CCOCC1 [Compound 136],100 to 1000 nM
2,Cc1nc(N2CC3(CC3)CN(c3ccc(-c4ccccc4F)cc3)C2=O)sc1S(N)(=O)=O [Compound 111],< 100 nM

# Continued, values first:
row,EC50,SMILES
1,100 to 1000 nM,Cc1nc(N2CCCN(c3ccc(-c4cccc5cn(C)nc45)cc3)C2=O)sc1S(N)(=O)=O [Compound 53]
2,1000 to 5000 nM,Cc1nc(N2CCCN(c3ccc(-c4cccc5ncn(C)c45)cc3)C2=O)sc1S(N)(=O)=O [Compound 62]
3,1000 to 5000 nM,Cc1cnc(-c2ccc(N3CCCN(c4nc(C)c(S(N)(=O)=O)s4)C3=O)cc2)s1 [Compound 44]
4,1000 to 5000 nM,Cc1nc(N2CCCN(C(C)c3cccc(-c4ccccc4F)c3)C2=O)sc1S(N)(=O)=O (centres unmarked) [Compound 177]
5,< 100 nM,"NS(=O)(=O)c1sc(N2CCCN(c3ccc(-c4cc(F)ccc4F)cc3)C2=O)nc1C(F)(F)F [Compound 169, 2-(3-(2′,5′-Difluoro-[1,1′-biphenyl]-4-yl)-2-oxotetrahydropyrimidin-1(2H)-yl)-4-(trifluoromethyl) thiazole-5-sulfonamide]"

# System: HSV-2 G strain
# Experiment: HSV-2 Antiviral Assay (Vero cells, cell viability)
# Format: cell-based
# Details: Human alphaherpesvirus 2, Vero, 120 h, Vero cells, 160 TCID50 HSV-2 G strain, 5 days, cell viability
# How it was run: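 Vero cells (1.0×10^4/well, attached overnight) given 8-point 3-fold compound dilutions (0.5% DMSO) then infected with 160 TCID50 HSV-2 G strain in 2% FBS medium for 5 days at 37 °C. Protection read as cell viability by WST-8 absorbance at 460 and 620 nm after 3 h.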
row,SMILES,EC50
1,Cc1nc(N2CCCN(c3ccc(-c4ccc(F)cc4F)cc3)C2=O)sc1S(N)(=O)=O [Compound 187],100 to 1000 nM
2,Cc1nc(N2CCCN(c3ccc(-c4ccccc4/C=C\C#N)cc3)C2=O)sc1S(N)(=O)=O [Compound 21],100 to 1000 nM
3,Cc1nc(N2CCCN(c3ccc(-c4ccc(F)c(F)c4)cc3)C2=O)sc1S(N)(=O)=O [Compound 190],100 to 1000 nM
4,"COc1c(F)cc(F)cc1-c1ccc(N2C[C@@H](C(F)(F)F)CN(c3nc(C)c(S(N)(=O)=O)s3)C2=O)cc1 (single isomer, unassigned) [Compound 373]",< 100 nM
5,Cc1nc(N2CCCN(c3ccc(-c4cc(C(F)(F)F)cc5c4cnn5C)cc3)C2=O)sc1S(N)(=O)=O [Compound 287],< 100 nM
6,Cc1cccc(-c2ccc(N3CCCN(c4nc(C)c(S(N)(=O)=O)s4)C3=O)cc2)c1C [Compound 195],< 100 nM
7,Cc1nc(N2CC(C(N)=O)CN(c3ccc(-c4cc(F)ccc4F)cc3)C2=O)sc1S(N)(=O)=O (centres unmarked) [Compound 381],100 to 1000 nM
8,Cc1nc(N2CCCN(c3ccc(-c4cc(C(F)(F)F)ccn4)cc3)C2=O)sc1S(N)(=O)=O [Compound 240],100 to 1000 nM
9,Cc1nc(N2CC(CO)CN(c3ccc(-c4cc(F)ccc4F)cc3)C2=O)sc1S(N)(=O)=O (centres unmarked) [Compound 356],< 100 nM
10,Cc1nc(N2CCCN(c3ccc(-c4cccc5c4cc(C)n5C)cc3)C2=O)sc1S(N)(=O)=O [Compound 250],< 100 nM
11,Cc1nc(N2CCCN(c3ccc(-c4cc(F)cc5c(C)c(C(C)(C)F)sc45)cc3)C2=O)sc1S(N)(=O)=O [Compound 283],100 to 1000 nM
12,COc1ccc(F)cc1-c1ccc(N2CCCN(c3nc(C)c(S(N)(=O)=O)s3)C2=O)cc1 [Compound 203],< 100 nM
13,Cc1nc(N2CCCN(c3ccc(-c4cc(C#N)cc5c4ccn5C)cc3)C2=O)sc1S(N)(=O)=O [Compound 302],100 to 1000 nM
14,CN=S(C)(=O)c1sc(N2CCCN(c3ccc(-c4ccccc4F)cc3)C2=O)nc1C (centres unmarked) [Compound 145],100 to 1000 nM
15,Cc1nc(N2CCCN(c3ccc(-c4cc(Cl)ccc4F)cc3)C2=O)sc1S(N)(=O)=O [Compound 27],< 100 nM
16,Cc1nc(N2CCCN(c3ccc(-c4cc(F)ccc4F)cc3)C2=O)sc1S(=O)(=O)NO [Compound 385],100 to 1000 nM
17,Cc1nc(N2CCCN(c3ccc(-c4cccc(C5(C#N)CC5)c4)cc3)C2=O)sc1S(N)(=O)=O [Compound 198],< 100 nM
18,Cc1nc(N2CC(F)(F)CN(c3ccc(-c4cc(F)ccc4F)cc3)C2=O)sc1S(N)(=O)=O [Compound 367],< 100 nM
19,Cc1nc(N2CCCN(c3ccc(-c4ncccc4C(F)(F)F)cc3)C2=O)sc1S(N)(=O)=O [Compound 232],100 to 1000 nM
20,"Cc1nc(N2CCCN(c3ccc(-c4cccc(-c5nccs5)c4)cc3)C2=O)sc1S(N)(=O)=O [Compound 30, 4-methyl-2-(2-oxo-3-(3′-(thiazol-2-yl)-[1,1′-biphenyl]-4-yl)tetrahydropyrimidin-1(2H)-yl)thiazole-5-sulfonamide]",< 100 nM
21,Cc1nc(N2CCCN(c3ccc(-c4cccc5c(C)cnn45)cc3)C2=O)sc1S(N)(=O)=O [Compound 247],< 100 nM
22,COc1c(F)cc(F)cc1-c1ccc(N2CCCN(c3nc(C)c(S(=O)(=O)NCCCCCCCCCCO)s3)C2=O)cc1 [Compound 422],< 100 nM
23,Cc1nc(N2CCCN(c3ccc(-c4cc(F)cc5cc(C(C)(C)O)sc45)cc3)C2=O)sc1S(N)(=O)=O [Compound 281],100 to 1000 nM
24,"Cc1nc(N2C[C@H](O)CN(c3ccc(-c4cc(F)ccc4F)cc3)C2=O)sc1S(N)(=O)=O (single isomer, unassigned) [Compound 354]",< 100 nM
25,COc1c(F)cc(C#N)cc1-c1ccc(N2CCCN(c3nc(C)c(S(N)(=O)=O)s3)C2=O)cc1 [Compound 226],100 to 1000 nM
26,Cc1nc(N2CCCN(c3ccc(-c4cccn5cncc45)cc3)C2=O)sc1S(N)(=O)=O [Compound 65],100 to 1000 nM

# The remaining lines, values ahead:
row,EC50,SMILES
1,100 to 1000 nM,Cc1nc(N2CCCN(c3ccc(-c4cc(F)cc5cc(C(C)(C)F)sc45)cc3)C2=O)sc1S(N)(=O)=O [Compound 284]
2,100 to 1000 nM,Cc1nc(N2CCCN(c3ccc(-c4ccc(C#N)c5c4ccn5C)cc3)C2=O)sc1S(N)(=O)=O [Compound 300]
3,< 100 nM,"Cc1nc(N2C[C@@H](C#N)CN(c3ccc(-c4cc(F)ccc4F)cc3)C2=O)sc1S(N)(=O)=O (single isomer, unassigned) [Compound 362]"
4,< 100 nM,"Cc1nc(N2C[C@H](C)CN(c3ccc(-c4ccccc4)cc3)C2=O)sc1S(N)(=O)=O (single isomer, unassigned) [Compound 327]"
5,< 100 nM,Cc1nc(N2CCCN(c3ccc(-c4nn(C)c5ccccc45)cc3)C2=O)sc1S(N)(=O)=O [Compound 92]
6,100 to 1000 nM,Cc1nc(N2CCCN(c3ccc(-c4cncs4)cc3)C2=O)sc1S(N)(=O)=O [Compound 49]
7,100 to 1000 nM,Cc1nc(N2CCCN(c3ccc(-c4snc5c(F)ccc(F)c45)cc3)C2=O)sc1S(N)(=O)=O [Compound 307]
8,< 100 nM,Cc1nc(N2CC3(CC3)CN(c3ccc(-c4ncccc4F)cc3)C2=O)sc1S(N)(=O)=O [Compound 112]
9,100 to 1000 nM,Cc1nc(N2CCCN(c3ccc(-c4cncc5c4cnn5C)cc3)C2=O)sc1S(N)(=O)=O [Compound 288]
10,< 100 nM,Cc1nc(N2CCCN(c3ccc(-c4cc(F)cc(C(F)F)c4F)cc3)C2=O)sc1S(N)(=O)=O [Compound 217]
11,100 to 1000 nM,Cc1nc(N2CCCN(c3ccc(-c4cc(C#N)cc5ncsc45)cc3)C2=O)sc1S(N)(=O)=O [Compound 278]
12,< 100 nM,COCCCCNS(=O)(=O)c1sc(N2CCCN(c3ccc(-c4cc(F)ccc4F)cc3)C2=O)nc1C [Compound 390]
13,100 to 1000 nM,Cc1nc(N2CCCN(c3ccc(-c4cc(F)ccc4F)c4scnc34)C2=O)sc1S(N)(=O)=O [Compound 311]
14,< 100 nM,"Cc1nc(N2CCCCN(c3ccc(-c4cc(F)ccc4F)cc3)C2=O)sc1[S@@](C)(=N)=O (single isomer, unassigned) [Compound 426]"
15,< 100 nM,CNS(=O)(=O)c1sc(N2CCCN(c3ccc(-c4cccc5cc(N)ncc45)cc3)C2=O)nc1C [Compound 411]
16,< 100 nM,Cc1nc(N2CCCN(c3ccc(-c4cc(F)ccc4F)cc3)C2=O)sc1S(=O)(=O)NCC(C)CO (centres unmarked) [Compound 394]
17,< 100 nM,Cc1nc(N2CCCN(c3ccc(-c4cc(F)cc5c4c(F)cn5C)cc3)C2=O)sc1S(N)(=O)=O [Compound 295]
18,100 to 1000 nM,Cc1nc(N2CCCN(c3ccc(-c4nccc5c4cnn5C)cc3)C2=O)sc1S(N)(=O)=O [Compound 261]
19,100 to 1000 nM,Cc1nc(N2CCCN(c3ccc(-c4cccc(C5CCC5)c4)cc3)C2=O)sc1S(N)(=O)=O [Compound 199]
20,< 100 nM,Cc1nc(N2CCCN(c3ccc(-c4cc(C(F)F)ccc4F)cc3)C2=O)sc1S(N)(=O)=O [Compound 206]
21,1000 to 5000 nM,Cc1cc(O)cc(-c2ccc(N3CCCN(c4nc(C)c(S(N)(=O)=O)s4)C3=O)cc2)n1 [Compound 238]
22,1000 to 5000 nM,Cc1nc(N2CCCN(c3ccc(-c4nccn5cncc45)cc3)C2=O)sc1S(N)(=O)=O [Compound 262]
23,100 to 1000 nM,Cc1nc(N2CCCN(c3ccc(-c4ccc(F)c(Cl)c4)cc3)C2=O)sc1S(N)(=O)=O [Compound 186]
24,100 to 1000 nM,Cc1ncsc1-c1ccc(N2CCCN(c3nc(C)c(S(N)(=O)=O)s3)C2=O)cc1 [Compound 50]
25,< 100 nM,Cc1nc(N2CCCN(c3ccc(-c4cccc(N)n4)cc3)C2=O)sc1S(=O)(=O)NC1CC1 [Compound 410]
26,< 100 nM,Cc1nc(N2CCCN(c3ccc(-c4cc(F)ccc4F)cc3)C2=O)sc1S(=O)(=O)NCC(F)(F)CO [Compound 392]
27,100 to 1000 nM,"Cc1nc(N2CCCN(c3ccc(-c4ccccc4F)cc3)C2=O)sc1[S@@](C)(=N)=O (single isomer, unassigned) [Compound 144]"
28,< 100 nM,Cc1nc(N2CCCN(c3ccc(-c4cc(F)ccc4F)cc3)C2=O)sc1S(=O)(=O)N[C@@H]1CC[C@@H](O)C1 [Compound 400]
29,100 to 1000 nM,Cc1nc(N2CCCN(c3ccc(-c4cc(F)ccc4-c4cncs4)cc3)C2=O)sc1S(N)(=O)=O [Compound 231]

# — patent US20260103471A1, “CYCLIC UREA THIAZOLYL COMPOUNDS FOR TREATMENT OF HSV” (Assembly Biosciences, Inc., priority 2022, published 2026)
